Reference: paper PMC9332833 (Cancers, 2022)
Read-outs that look alike come from different tables or passages of the source. One block for each compound: values may come before it.

Experiments:
K562-MDR1 cells [1] = assay: MTT viability test, K562-MDR1; type: cell-based, human; details: for viability at 0.005 µM: 48 h, 0,005 µM; for IC50: MTT; for Cross-resistance of K562-MDR1 cells: MTT assay
From the text: The K562-MDR1 cell line was developed using increasing concentrations of the commonly used antimitotic drug vincristine on a polyclonal K562 population, as described earlier. […] The DMSO concentration in the culture was 0.1%. The vincristine dose was doubled every 2–3 weeks (at least twice for each experiment) after the cells reached confluence. Cell’s viability was above 90%, as confirmed by Muse Cell Analyzer (Merck Millipore, Burlington, MA, USA). The final concentration of vincristine reached was 0.1 μM. The increase in the K562-MDR1 population was confirmed by flow cytometry and PCR.
(§1) Cells were seeded in 96-well plates; after 24 h, medium with the appropriate drug concentration was added to each well. After 48 h, Tetrazolium Bromide (Sigma-Aldrich, St. Louis, MO, USA) was added to each well for 2–3 h. After that, cells were lysed and formazan crystals were dissolved. Absorbance was read using an iMark Microplate absorbance reader (Bio-Rad, Hercules, CA, USA). Results were calculated relative to cells treated with DMSO only. […]
(§2) Cells were seeded in 96-well plates at 7 × 10^3 cells/well in 50 µL of complete medium (for K562 or K562-MDR1) or at 50 × 10^3 cells/well in 50 µL of complete medium (CD34+ cells). After 24 hours, 50 µL of medium with the appropriate drug concentration was added to each well. The final DMSO concentration per well was 1% for K562 and K562-MDR1 and 0.1% for CD34+ cells. After 48 hours, 20 µL of Tetrazolium Bromide (Sigma-Aldrich, St. Louis, MO, USA) at a concentration of 5 mg/mL was added to each well. Cells were incubated for 2-3 hours in a cell culture incubator, and then 10% SDS with 1% HCl was added to each well to lyse the cells and dissolve the formazan crystals. Plates were […]

K562 cells [2] = assay: MTT viability test, K562; type: cell-based; details: Homo sapiens; for viability at 0.005 µM: K562, 48 h, 0,005 µM; for IC50: K562
Procedure: CML cell line K562 CCL-243™ (BCR-ABL^+) was purchased from the ATCC® (Manassas, VA, USA). Cells were grown in RPMI 1640 medium containing HEPES (Biowest, Nuaillé, France) with 2 mM GlutaMAX (Gibco, Grand Island, NY, USA), supplemented with 10% fetal bovine serum (Sigma-Aldrich, St. Louis, MO, USA) and […] (Gibco, Grand Island, NY, USA) and 0.1 µM Vincristine (for K562-MDR1).
as §1, §2

K562 cells [3] = assay: K562 xenogeneic mouse model, tumor growth; type: in vivo, NSG mice
Procedure: Statistical analysis was performed using GraphPad Prism version 9.1.0. All in vitro experiments were performed in at least triplicate biological replicates and statistical results are expressed as mean ± standard deviation (SD). Statistical data of animal experiments are expressed as mean ± standard error of the mean (SEM). For experiments involving patients, the normality of the distribution was checked using the Shapiro–Wilk test and the statistical analysis was performed using one-way ANOVA with Dunnett’s post-test * p < 0.05, ** […], *** 0.001 > p > 0.0001, **** p < 0.0001.
Table S3. […] Control and
IP, intraperitoneal administration; O, orally

[4] = Body and organ weights in K562 xenograft mice
Procedure: (§3) Eight-week-old female NOD.Cg-Prkdcscid Il2rgtm1Wjl/SzJ NSG mice (Jackson Laboratory, Bar Harbor, ME, USA) were injected subcutaneously into the dorsal fold with 1 × 10^6 K562 cells of the human chronic myeloid leukemia (CML) line in a final volume of 100 µL (0.5% of the mouse weight). On day 3 after cell administration, mice were randomly assigned to each group, and on days 4–17 of the experiment, the selected tested compounds and control solutions were administered intraperitoneally or orally. During the experiment, subcutaneous tumors and body weight were measured daily. Tumor growth during the experiment was measured with an electronic display caliper. The theoretical tumor volume [mm], was calculated according to the formula (a^2 × b) * 0.5, where a is the shorter tumor axis [mm] and b is the longer tumor axis [mm]. On day 26, the experiment was terminated: blood was collected and analyzed for cellular morphology and standard biochemistry metabolites. Tumors were weighed.
(§4) Control and treated mice were grouped according to the tested compounds and the scheme of their administrations (doses, administration frequencies, routes of administration) in the CML xenogeneic model obtained by subcutaneous transplantation of 1 × 10^6 cells of the human CML blast line K562 into mice NOD.Cg-Prkdcscid Il2rgtm1Wjl/SzJ (NSG).
(§5) Hydroxyurea K562 500 mg/kg, IP Aqua pro 1 x daily 8

[5] = Blood morphology in K562 xenograft mice; details: 500 mg/kg IP daily 14 days, N=4
Procedure: as §3, §4, §5

K562-MDR1 cells [6] = assay: P-glycoprotein (CD243)/propidium iodide flow cytometry; type: cell-based, human; details: 1 µM, 24 h; for Proportion of K562-MDR1 cells, mean value: DMSO control 33.6%; for viability at 1 µM: Homo sapiens, DMSO control 89.2%, read-out: Living cells (viability), mean value
Procedure: BK124.1 or DMSO were added to cells and after 24 h incubation cells were harvested and stained with FITC Mouse Anti-Human P-glycoprotein (CD243) clone 17F9 (BD, Franklin Lakes, NJ, USA) or an appropriate isotype control. Propidium iodide was added to […]. Cells were analyzed on a BD FACSCalibur flow cytometer using CellQuest software (BD, Franklin Lakes, NJ, USA). […]
Flow cytometry analysis of CD243 (P-glycoprotein)
Cells were seeded at a concentration of 1-2 × 10^5 cells/mL in a 6- or 24-well plate. After 24 hours of pre-incubation, DMSO or test compounds in DMSO were added. The cells were then incubated for 24 hours. After this time, cells were harvested, washed with 0.5% BSA in PBS (Mg2+ and Ca2+ free), and labeled for 30 minutes on ice with FITC Mouse Anti-Human P-glycoprotein (CD243) clone 17F9 (BD, Franklin Lakes, NJ, USA) or an appropriate isotype control. Following incubation with the antibody, cells were stained with propidium iodide, washed with PBS and a nalyzed on a BD FACSCalibur flow cytometer using CellQuest software (BD, Franklin Lakes, NJ, USA). […]

[7] = Homo sapiens, 48 h, 0,05 µM, 48 h, mean ± SD, read-out: Viability in relation to control
[8] = Homo sapiens, 48 h, mean ± SD, read-out: Viability in relation to control
[9] = Homo sapiens, 48 h, 5 µM, 48 h, mean ± SD, read-out: Viability in relation to control
[10] = 48 h, mean ± SD, read-out: Viability in relation to control
[11] = 500 mg/kg IP daily 14 days, mean ± SD, N=4
[12] = mean ± SD, standard range 0.0-99.0

- IC50 (K562-MDR1 cells [1]; Homo sapiens, 48 h): 7 µM
- IC50 (K562 cells [2]; MTT, 48 h): 3.7 µM
Structure (SMILES): COc1cccc2c1C(=O)c1c(O)c3c(c(O)c1C2=O)C[C@@](O)(C(=O)CO)C[C@@H]3O[C@H]1C[C@H](N)[C@H](O)[C@H](C)O1 [doxorubicin]
- viability at 5 µM (K562-MDR1 cells [1]; [7]): 101%
- viability at 0.005 µM (K562-MDR1 cells [1]; [8]): 99.4%
- viability at 5 µM (K562-MDR1 cells [1]; [9]): 45.1%
- Cross-resistance of K562-MDR1 cells (K562-MDR1 cells [1]): confirmed
- viability at 0.005 µM (K562 cells [2]; [10]): 97.7%

Structure (SMILES): NC(=O)NO [hydroxyurea, reference compound]
- Tumor weights (K562 cells [3]; 500 mg/kg IP daily 14 days, mean ± SD, N=4, tumor growth control 9.2±2.1): 1.8 ± 0.9 g
- Tumor growth versus control groups (K562 cells [3]; BK124.1 20 or 30 mg/kg IP, imatinib 100 mg/kg orally, hydroxyurea 500 mg/kg IP, 1 x daily): effectively inhibited
- Brain weight [4, 11]: 0.46 ± 0.02 g
- Heart weight [4, 11]: 0.11 ± 0.03 g
- Kidneys weight [4, 11]: 0.27 ± 0.04 g
- Liver weight [4, 11]: 1.16 ± 0.13 g
- Lung weight [4, 11]: 0.25 ± 0.08 g
- Splean weight [4, 11]: 0.05 ± 0.01 g
- Total body weight course ([4]; doses as in Table S3, control mice gained mass in the last 5 days): began to lose large quantities of weight
- GRA [5, 12]: 26.0±7.6%
- LYMP [5, 12]: 58.0±9.9%
- MON [5, 12]: 16.0±3.8%
- HGB ([5]; mean ± SD, standard range 1.1-18): 13.1 ± 0.8 g/dL
- WBC ([5]; mean ± SD, standard range 3.0-15): 8.1±4.3 103/μL
- MPV ([5]; mean ± SD, standard range 4.6-7.3): 3.6±4.3 μm3
- RBC ([5]; mean ± SD, standard range 5.0-12): 6.9±0.4 106/μL
- RDW ([5]; mean ± SD, standard range 11.5-14.5): 17.3±0.6%
- MCH ([5]; mean ± SD, standard range 12-24.5): 18.9 ± 0.5 pg
- MCHC ([5]; mean ± SD, standard range 21.6-42): 31.5 ± 0.3 g/dL
- HCT ([5]; mean ± SD, standard range 36-52): 41.5±2.4%
- PLT ([5]; mean, standard range 140-600): 1575.5 103/μL

- IC50 (K562-MDR1 cells [1]; Homo sapiens, 48 h): 7 µM
Structure (SMILES): CC(=O)O[C@H]1C(=O)[C@@]2(C)[C@H]([C@H](OC(=O)c3ccccc3)[C@]3(O)C[C@H](OC(=O)[C@H](O)[C@@H](NC(=O)c4ccccc4)c4ccccc4)C(C)=C1C3(C)C)[C@]1(OC(C)=O)CO[C@@H]1C[C@@H]2O [paclitaxel]
- Proportion of K562-MDR1 cells, mean value (K562-MDR1 cells [6]): 33.7%
- viability at 1 µM (K562-MDR1 cells [6]): 77.2%
- viability at 5 µM (K562-MDR1 cells [1]; [7]): 89.9%
- viability at 5 µM (K562-MDR1 cells [1]; Homo sapiens, 48 h, 0,5 µM, 48 h, mean ± SD, read-out: Viability in relation to control): 48.4%
- viability at 0.005 µM (K562-MDR1 cells [1]; [8]): 100%
- viability at 5 µM (K562-MDR1 cells [1]; [9]): 44.3%
- Cross-resistance of K562-MDR1 cells (K562-MDR1 cells [1]): confirmed
- viability at 0.005 µM (K562 cells [2]; [10]): 32.6%

- IC50 (K562-MDR1 cells [1]; Homo sapiens, 48 h): 0.512 µM
- IC50 (K562 cells [2]; MTT assay): 0.003 µM
Structure (SMILES): CC[C@]1(O)C[C@H]2CN(CCc3c([nH]c4ccccc34)[C@@](C(=O)OC)(c3cc4c(cc3OC)N(C=O)[C@H]3[C@@](O)(C(=O)OC)[C@H](OC(C)=O)[C@]5(CC)C=CCN6CC[C@]43[C@@H]65)C2)C1 [vincristine]
- Proportion of K562-MDR1 cells, mean value (K562-MDR1 cells [6]): 37.0%
- viability at 1 µM (K562-MDR1 cells [6]): 79.7%
- viability at 1 µM (K562-MDR1 cells [1]; Homo sapiens, 48 h, 0,1 µM, 48 h, mean ± SD, read-out: Viability in relation to control): 94.3%
- viability at 0.001 µM (K562-MDR1 cells [1]; Homo sapiens, 48 h, 0,001 µM, 48 h, mean ± SD, read-out: Viability in relation to control): 106%
- viability at 1 µM (K562-MDR1 cells [1]; Homo sapiens, 48 h, 1 µM, 48 h, mean ± SD, read-out: Viability in relation to control): 32.4%
- viability at 0.005 µM (K562-MDR1 cells [1]; [8]): 111%
- viability at 0.001 µM (K562 cells [2]; K562, 48 h, 0,001 µM, 48 h, mean ± SD, read-out: Viability in relation to control): 76.6%
- viability at 0.005 µM (K562 cells [2]; [10]): 32.6%
